Here are results for one substance from US20240245712A1, “METHODS AND MATERIALS FOR IDENTIFYING AND TREATING MEMBRANOUS NEPHROPATHY” (Mayo Foundation for Medical Education and Research, priority 2023, published 2024).

The subject of this assay is syphilis-associated membranous nephropathy (nephrotic syndrome). The assay can be described thus: Follow-up of syphilis-associated NDNF-positive membranous nephropathy patients treated with antibiotics. Type of assay: in vivo, human. The protocol:
Biopsies for diagnosis were evaluated. The diagnosis of MN was confirmed by light microscopy (LM), immunofluorescence (IF) microscopy including PLA2R studies, and electron microscopy (EM). The clinical information was obtained from the accompanying charts. For detection of novel proteins, MS/MS was performed in 250 cases of PLA2R-negative cases (discovery cohort) that included cases used for identification of EXT1/EXT2, NELL1, SEMA3B, PCDH7, and FAT1 (Sethi et al., J. Am. Soc. Nephrol., 30:1123-1136 (2019); Sethi et al., Kid. Int., 97:163-174 (2020); Sethi et al., Kid. Int., 98:1253-1265 (2020); Sethi et al., J. Am. Soc. Nephrol., 32:1249-1261 (2021); and Sethi et al., J. Am. Soc. Nephrol., 33:1033-1044 (2022)). A NDNF polypeptide was detected in 3 cases of PLA2R-negative MN (NDNF-associated MN) by MS/MS. All 3 cases were negative for spectral counts for THSD7A, EXT1/EXT2, NELL1, SEMA3B, HTRA1, CNTN1, NCAM1, PCDH7, and FAT1 while baseline spectral counts for PLA2R were present in 2 of the 3 cases.
Using MS/MS, 14 cases of hepatitis B-associated MN and 5 cases of syphilis-associated MN were screened for MN antigens (validation cohort). Tissue from 4 cases (cases 4-7) of syphilis-associated MN were obtained from Cedars Sinai Medical Center and one case (cases 8-9) from Mayo Clinic. Cases 8 and 9 were from the same patient who was biopsied twice, 3 months apart. […]

With penicillin, for the setting “Case 8, repeat biopsy 3 months later, after complete remission”, the “Repeat kidney biopsy finding after treatment” value is on record as “continued to show membranous nephropathy”. Besides, for the setting “patients with syphilis and NDNF-associated MN, follow-up available in 4 of the 6 cases of syphilis”, the “Outcome of the nephrotic syndrome after antibiotic treatment” value was “complete remission”.
